Patent EP2698385A1, “Detection of synthetic cannabinoids” (priority 2012, dated 2014)

Columns and labels:
Format in all cases: binding, sheep
[1] = system: antibodies raised to Immunogens I & II; assay: Competitive ELISA (Example 19), sensitivity and cross-reactivity of selected molecules, one result for both antibodies; conditions: for % CR / IC50: first Table 3, Standard Conc 750.00 ng/ml; for binding / cross-reaction with antibodies raised from Immunogens I and II: result in words
Description: Aqueous solutions of the immunogens prepared in examples 5 and 13 were formulated with Freund's Complete Adjuvant (FCA) to form emulsions consisting of 2mg/ml Immunogen I and 2mg/ml of Immunogen II in 50%(v/v) FCA. Three sheep were immunised with each emulsion (1° immunisations), 0.25ml being intramuscularly injected at four sites in the rump of each animal. Subsequent immunisations (boosts 2-8) contained 1mg/ml Immunogen I and 1mg/ml Immunogen II. All boosts were emulsified in 50%(v/v) Freund's Incomplete Adjuvant (FIA) and administered to the appropriate sheep in the same manner as the 1° immunisations, at monthly intervals. Blood sampling took place 7-14 days after each boost. Each sample was processed to produce antiserum, which was further purified by caprylic acid and ammonium sulphate precipitation to yield an immunoglobulin (Ig) fraction. The Ig fraction was evaluated by competitive ELISA microtiter plate assay, as described in example 19 below.
Example 19: Development of competitive ELISA for JWH synthetic cannabinoids and metabolites. • (a) The wells of an enhanced binding 96 well polystyrene microtiter plate were coated with the Ig fraction of the antiserum raised to Immunogen I (Hapten A-BTG - example 5) and diluted in 10mM Tris, pH8.5 (125µl/well). The appropriate antibody coating concentration was determined using standard ELISA checkerboard techniques. The plate was incubated for 2 hours at 37°C, washed 4 times over a 10-minute period with Tris buffered saline containing Tween 20 (TBST) and tapped dry. Standard solutions of JWH synthetic cannabinoids, metabolites and selected molecules were prepared in TBST and 50µl of each was added to the appropriate wells. 75µl of conjugate (Hapten A-HRP) diluted in Tris buffer containing EDTA, D-mannitol, sucrose, thimerosal and BSA, was added to each of the wells. The appropriate dilution of conjugate was also determined using standard ELISA checkerboard techniques. The plate was incubated at 25°C for 1 hour. The excess unbound conjugate was removed by washing 6 times over a 10-minute period with TBST and tapped dry. 125µl of tetramethylbenzedine (TMB) substrate solution was added to each well of the plate that was then incubated for 15-20 minutes in the dark at room temperature. The reaction was terminated by addition of 125µl of 0.2M sulphuric acid to each well. The absorbance was then measured at 450nm using a microtiter plate reader. Employing each series of standards, calibration curves were generated and these were used to determine the specificity of the immunoassay for the JWH synthetic cannabinoids, metabolites and selected molecules. The results of this study are presented in Tables 1 to 3, cross-reactivity being calculated according to the following formula: %CR = […] /IC50,CR X 100 [formula] Where %CR is the percentage cross-reactivity, IC50, YWH-018 is the concentration of JWH-018 that causes 50% displacement of signal and IC50, CR is the concentration of JWH synthetic cannabinoid/metabolite/selected molecule that causes 50% displacement of signal.
Table 2: Data generated from a competitive microtiter plate assay for JWH synthetic cannabinoids and metabolites, employing antiserum raised to Immunogen I (Hapten A-BTG) and conjugate (Hapten A-HRP) as detection reagent. • (c) The resulting competitive ELISA for synthetic cannabinoids and metabolites was further employed to analyse urine and serum samples from 20 patients (Table 3). • (d) The resulting competitive ELISA for synthetic cannabinoids and metabolites was also employed to test for the 5-fluoropentyl derivative of JWH-018, (1-(5-fluoropentyl)indol-3yl (1-naphthyl) methanone (Table 4).

[2] = system: Antibody to Immunogen VII; conditions: Cross-reactants at 100 ng/ml; Antibody to Immunogen VII
Antibody to Immunogen IV = conditions: Cross-reactants at 100 ng/ml; Antibody to Immunogen IV
[3] = system: Antibody to Immunogen VIII; conditions: Cross-reactants at 100 ng/ml; Antibody to Immunogen VIII
Antibody to Immunogen II = assay: Competitive ELISA (Example 36), antibody RS1833B12, tracer ESC4555/LK959, standard JWH-018; conditions: Cross-reactants at 100 ng/ml; Antibody to Immunogen II
Description: An aqueous solution of each immunogen was formulated with Freund's Complete Adjuvant (FCA) to form an emulsion consisting of 2mg/ml* immunogen in 50% (v/v) FCA. Three sheep were immunised with this emulsion (1° immunisation), 0.25ml being intramuscularly injected at each of four sites in the flank of each animal. Subsequent immunizations (boosts) contained 1mg/ml* immunogen. All boosts were emulsified in 50% (v/v) Freund's Incomplete Adjuvant (FIA) and were administered in the same manner as the 1° immunisation, at monthly intervals. Blood sampling took place 7 to 14 days after each boost. *The general procedure for immunogen administration is outlined above, however, it was necessary to deviate from this protocol in some cases, due to reduced immunogen concentrations (Immunogens II, IV, VII and VIII) and/or amount available (Immunogen VIII). Any deviations from the protocol described are outlined in Table 1A below and highlighted in bold. Table 1A: Amount and volume of immunogens administered for primary and subsequent boosts
The appropriate antibody coating dilution was determined using standard ELISA checkerboard techniques. The plate was incubated overnight at 4°C, washed 4 times over 10 minutes with Tris buffered saline containing Tween 20 (TBST) and tapped dry. […] 75µl of conjugate (appropriate hapten-HRP) diluted in Tris buffer (pH 7.2) containing EDTA, D-mannitol, sucrose, thimerosal and BSA, was added to each of the wells. The appropriate dilution of conjugate was also determined using standard ELISA checkerboard techniques. The plate was incubated at 25°C for 1 hour. Excess unbound conjugate was removed by washing 6 times over a 10 minute period with TBST. 125µl of tetramethylbenzidine (TMB) substrate solution was added to each well of the plate that was then incubated for 20 minutes in the dark at room temperature. The reaction was terminated by addition of 125µl 0.2M H2SO4 to each well. The absorbance was then measured at 450nm using a microtiter plate reader. The data are inputted to a computer program called 'KC Junior'. It is a 4 parameter fit curve and allow the calculatation of concentrations between the standard runs.
In a similar manner to that described above, the wells of a 96-well microtiter plate were coated with the IgG fraction of the antiserum raised to Immunogens I or II.
The data set our in Tables 3 and 4 are generated using antibodies raised against the indicated Immunogens in a competitive binding assay with the indicated tracers, using the indicated standards: Table 2
Using the calibration curves generated and employing a single level of cross reactants, these were used to determine the cross-reactivity of each immunoassay with these substances. These are the standards used for the IC50 and cross-reactivity data generation • Immunogen I - JWH-018 • Immunogen II - JWH-018 • Immunogen IV - JWH-018 • Immunogen VII - JWH-015 • Immunogen VIII - JWH-018 Table 4: Cross reactivity of the competitive ELISAs for synthetic cannabinoids and their metabolites

Antibody to Immunogen I = conditions: Cross-reactants at 100 ng/ml; Antibody to Immunogen I
Summary of the method: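 Sheep anti-Immunogen I IgG coated on plates, then JWH-018 standards (0–40 ng/ml) competed with hapten-HRP conjugate for 1 h at 25°C. TMB read-out at 450 nm, 4-parameter fit. IC50 is the standard concentration giving 50% B/B0; cross-reactivity of related cannabinoids taken from the calibration curves.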

| Compound | % CR [1] [%] | IC50 [1] [µg/mL] | binding / cross-reaction with antibodies raised from Immunogens I and II [1] | %B/B0 [2] [%] | %B/B0 (Antibody to Immunogen IV) [%] | %B/B0 [3] [%] | %B/B0 (Antibody to Immunogen II) [%] | %B/B0 (Antibody to Immunogen I) [%] |
| --- | --- | --- | --- | --- | --- | --- | --- | --- |
| O=C(O)c1c[nH]c2ccccc12 [Indole-3-carboxylic Acid] | < 0.28 | > 0.75 | do not cross-react | 96.90 | 93.42 | 96.28 | – | – |
| COc1cccc2[nH]cc(CCN(C)C)c12 [4-Methoxypsilocin] | < 0.28 | > 0.75 | – | – | – | – | – | – |
| CCCCCc1cc(O)c2c(c1)OC(C)(C)c1ccc(C)cc1-2 [Cannabinol] | < 0.28 | > 0.75 | – | 95.43 | 94.74 | 94.03 | – | – |
| CCn1cc(C(=O)c2cccc3ccccc23)c2ccccc21 [JWH-071] | – | – | bind | – | – | – | – | – |
| OCCc1c[nH]c2ccc(O)cc12 [5-hydroxytryptophol] | < 0.28 | > 0.75 | – | 98.45 | 94.51 | 102.93 | – | – |
| CCCCCc1cc(O)c2c(c1)OC(C)(C)[C@@H]1CCC(CO)=C[C@@H]21 [11-Hydroxy-δ-9-THC] | < 0.28 | > 0.75 | – | – | – | – | – | – |
| O=C(c1cccc2ccccc12)c1cn(CCN2CCOCC2)c2cc(O)ccc12 [JWH-200 6-hydroxyindole metabolite] | – | – | – | 65.52 | 94.41 | 83.20 | 61.65 | 7.27 |
| CCCCCn1cc(C(=O)O)c2ccccc21 [3-Carboxy-N-pentyl-1H -indole, 3-carboxy-1-pentyl-1H-indole] | < 0.28 | > 0.75 | – | – | – | – | – | – |
| CS(=O)(=O)O.Cc1c(C(=O)c2cccc3ccccc23)c2cccc3c2n1[C@H](CN1CCOCC1)CO3 [(+)WIN 55212-2 (mesylate), (+)WIN 55212-2] | – | – | – | 24.08 | 92.76 | 107.12 | 83.87 | 17.00 |
| CC(C)CCn1cc(C(=O)c2cccc3ccccc23)c2ccccc21 [JWH 018 N-(3-methylbutyl) isomer (JWH-073 3-methylbutyl homologue), JWH 018 N-(3-methylbutyl) isomer] | – | – | – | 48.81 | 12.75 | 53.29 | 30.38 | 3.16 |
| CCCCCn1cc(C(=O)c2cccc3c(Cl)cccc23)c2ccccc21 [JWH-398 5-chloronaphthyl isomer] | – | – | – | 91.33 | 7.06 | 19.67 | 23.50 | 35.53 |
| O=C(c1cccc2ccccc12)c1cn(CCN2CCOCC2)c2ccc(O)cc12 [JWH-200 5-hydroxyindole metabolite] | – | – | – | 82.42 | 97.53 | 90.88 | 64.99 | 12.61 |
| NCCc1c[nH]c2ccc(O)cc12 [Serotonin] | < 0.28 | > 0.75 | – | – | – | – | – | – |
| CCCCCn1cc(C(=O)c2cccc3c(OC)cccc23)c2ccccc21 [JWH-081 5-methoxynaphthyl isomer] | – | – | – | 94.16 | 6.24 | 26.56 | 60.90 | 18.51 |
| CCCCn1cc(C(=O)c2cccc3ccccc23)c2c(O)cccc21 [JWH-073 4-hydroxyindole metabolite] | – | – | – | 82.82 | 28.69 | 26.23 | 40.14 | 39.50 |
| O=C(O)CCCn1cc(C(=O)c2cccc3ccccc23)c2ccccc21 [JWH-073 N-butanoic acid metabolite] | – | – | – | 60.01 | 98.95 | 94.98 | 92.20 | 6.88 |
| CCC(C)Cn1cc(C(=O)c2cccc3ccccc23)c2ccccc21 (single isomer, unassigned) [JWH-018 N-(2-methylbutyl) isomer (JWH-073 2-methylbutyl homologue), JWH-018 N-(2-methylbutyl) isomer] | – | – | – | 58.84 | 29.88 | 85.16 | 28.60 | 3.61 |
